Results reported in patent US5834286A, “Recombinant cells that express phytate degrading enzymes in desired ratios” (Rohm Enzyme Finland Oy, priority 1995, dated 1998).
Where two headings read alike, the source gives them in different places.

Experiments:
[1] = target: T1, Aspergillus niger var. awamori strain ALKO243 (ATCC#38854) pH2.5 acid phosphatase, purified native enzyme, SEQ. ID. NO. 4 (Aspergillus awamori, UniProt P34755); assay: Apparent Km of purified pH2.5 acid phosphatase (phosphate release, molybdate detection); type: biochemical; conditions: 37° C., read-out: apparent Km for sodium phytate
T1 construct: Peptide #1110T is derived from a trypsin digestion of purified native pH2.5 acid phosphatase; endogenous in cells; host or cells: A. niger var. awamori strain ALKO243 (ATCC#38854), purified in house from the cell-free culture medium
T1 sequence (P34755 20-479): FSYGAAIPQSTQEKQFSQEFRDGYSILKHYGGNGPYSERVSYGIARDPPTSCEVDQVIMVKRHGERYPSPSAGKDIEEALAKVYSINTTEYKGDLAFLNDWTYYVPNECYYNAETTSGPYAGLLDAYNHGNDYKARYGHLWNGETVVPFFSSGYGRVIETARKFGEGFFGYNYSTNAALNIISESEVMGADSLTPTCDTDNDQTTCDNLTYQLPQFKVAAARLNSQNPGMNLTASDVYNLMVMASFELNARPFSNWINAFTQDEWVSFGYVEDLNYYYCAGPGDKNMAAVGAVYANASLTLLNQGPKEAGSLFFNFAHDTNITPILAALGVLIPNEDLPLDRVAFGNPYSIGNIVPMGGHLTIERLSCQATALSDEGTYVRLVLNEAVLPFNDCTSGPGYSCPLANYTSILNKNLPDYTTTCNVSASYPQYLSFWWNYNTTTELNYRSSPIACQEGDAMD
Protocol: (§1) Both assays measure the amount of inorganic phosphate that is released by enzyme action as colorimetrically quantifying using reduction of a phosphomolybdate complex. One phytase unit (PU) is the amount of enzyme which liberates, under the conditions described below, 1 nmol of inorganic phosphate from Na-phytate in one minute at 37° C. One pH2.5 acid phosphatase unit (HFU) is the amount of enzyme which liberates, under the conditions indicated below, 1 nmol of inorganic phosphate from P-nitrophenyl phosphate in one minute.
(§2) pH2.5 acid phosphatase activity was determined in a similar fashion: namely, 0.1 ml of diluted enzyme (diluted in 0.2M Glycine-HCl buffer, pH2.5) was added to 1.9 ml of substrate (30 mM p-nitrophenyl phosphate [Boehringer Mannheim] dissolved in 0.2M Glycine --HCl buffer) pH2.5. After a fifteen-minute incubation at 37° C., the reaction was terminated by addition of an equal volume of 15% TCA (as above). The released orthophosphate was measured using Reagent C (as described above), and the activity determined by a comparison to known diluted phosphate standards (as above) and by using the calculations described above.

[2] = target: Aspergillus ficuum phytase (WO 91/05053) (Aspergillus niger, UniProt P34752); conditions: reported in WO 91/05053; substrate not given; cited from earlier work
Sequence of Aspergillus ficuum phytase (WO 91/05053) (P34752 24-467): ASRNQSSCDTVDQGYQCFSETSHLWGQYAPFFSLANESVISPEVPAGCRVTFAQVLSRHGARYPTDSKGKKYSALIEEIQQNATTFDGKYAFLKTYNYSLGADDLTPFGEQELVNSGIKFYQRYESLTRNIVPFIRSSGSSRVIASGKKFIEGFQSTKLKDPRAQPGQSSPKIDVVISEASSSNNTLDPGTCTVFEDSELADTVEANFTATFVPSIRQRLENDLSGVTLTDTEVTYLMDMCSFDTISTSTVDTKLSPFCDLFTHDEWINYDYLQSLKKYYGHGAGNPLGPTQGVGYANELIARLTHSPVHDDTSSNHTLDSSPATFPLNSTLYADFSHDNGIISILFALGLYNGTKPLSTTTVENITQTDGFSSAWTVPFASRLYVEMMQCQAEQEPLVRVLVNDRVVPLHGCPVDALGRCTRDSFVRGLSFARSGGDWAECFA

[3] = target: T2, Aspergillus ficuum phytase, wild type (Ullah, 1988) (Aspergillus niger, UniProt P34752); conditions: reported by Ullah 1988; substrate not given; cited from earlier work
T2 construct: Ullah reportedly purified a phytase from wild-type A. ficuum; host or cells: wild-type A. ficuum (extracellular enzyme)
T2 sequence (P34752 20-467): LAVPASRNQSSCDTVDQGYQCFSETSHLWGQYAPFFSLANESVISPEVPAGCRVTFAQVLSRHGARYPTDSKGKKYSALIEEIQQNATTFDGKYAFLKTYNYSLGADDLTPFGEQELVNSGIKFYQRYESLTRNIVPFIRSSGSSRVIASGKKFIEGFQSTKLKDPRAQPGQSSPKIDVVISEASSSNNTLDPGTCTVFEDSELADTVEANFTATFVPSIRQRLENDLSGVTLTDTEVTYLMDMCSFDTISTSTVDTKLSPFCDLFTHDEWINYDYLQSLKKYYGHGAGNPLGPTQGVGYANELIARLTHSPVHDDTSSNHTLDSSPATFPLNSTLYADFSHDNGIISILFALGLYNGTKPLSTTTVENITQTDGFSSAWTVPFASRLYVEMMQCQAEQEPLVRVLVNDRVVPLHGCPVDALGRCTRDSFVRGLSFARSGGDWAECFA

[4] = substrate: O=[N+]([O-])c1ccc(OP(=O)(O)O)cc1; assay: purified protein, by the assay type; conditions: other: 37° C., pH2.5, pH 2.5
[5] = substrate: O=P(O)(O)O[C@H]1[C@H](OP(=O)(O)O)[C@@H](OP(=O)(O)O)[C@H](OP(=O)(O)O)[C@@H](OP(=O)(O)O)[C@H]1OP(=O)(O)O; assay: Apparent Km of purified pH2.5 acid phosphatase (phosphate release, molybdate detection); type: biochemical, Aspergillus niger var. awamori; conditions: other: 37° C., pH 2.5
Protocol: as §1, §2

O=P(O)(O)O[C@H]1[C@H](OP(=O)(O)O)[C@@H](OP(=O)(O)O)[C@H](OP(=O)(O)O)[C@@H](OP(=O)(O)O)[C@H]1OP(=O)(O)O [sodium phytate]
Km ([1]; listed as Na-phytate): ~700 µM | Km [1]: ~700 µM

O=P(O)(O)O[C@H]1[C@H](OP(=O)(O)O)[C@@H](OP(=O)(O)O)[C@H](OP(=O)(O)O)[C@@H](OP(=O)(O)O)[C@H]1OP(=O)(O)O [phytate, myo-inositol-hexaphosphate]
Km [2]: ~250 µM | Km [3]: ~40 µM

B1: Aspergillus niger var. awamori strain ALKO243 (ATCC#38854) pH2.5 acid phosphatase, purified native enzyme, SEQ. ID. NO. 4 (Aspergillus awamori) (protein)
chain: FSYGAAIPQSTQEKQFSQEFRDGYSILKHYGGNGPYSERVSYGIARDPPTSCEVDQVIMVKRHGERYPSPSAGKDIEEALAKVYSINTTEYKGDLAFLNDWTYYVPNECYYNAETTSGPYAGLLDAYNHGNDYKARYGHLWNGETVVPFFSSGYGRVIETARKFGEGFFGYNYSTNAALNIISESEVMGADSLTPTCDTDNDQTTCDNLTYQLPQFKVAAARLNSQNPGMNLTASDVYNLMVMASFELNARPFSNWINAFTQDEWVSFGYVEDLNYYYCAGPGDKNMAAVGAVYANASLTLLNQGPKEAGSLFFNFAHDTNITPILAALGVLIPNEDLPLDRVAFGNPYSIGNIVPMGGHLTIERLSCQATALSDEGTYVRLVLNEAVLPFNDCTSGPGYSCPLANYTSILNKNLPDYTTTCNVSASYPQYLSFWWNYNTTTELNYRSSPIACQEGDAMD
notes: Peptide #1110T is derived from a trypsin digestion of purified native pH2.5 acid phosphatase; endogenous in cells; host or cells: A. niger var. awamori strain ALKO243 (ATCC#38854), purified in house from the cell-free culture medium
Km [4]: 4000 µM | Km [5]: 700 µM
